Data reported in US4125605A, “Method of employing oral TRH” (The United States Government, priority 1977, dated 1978).

How the values were obtained:
[1] = system: nursing women between the 5th and 35 postpartum days; format: in vivo, human; settings: 5 mg TRH oral single dose
Protocol: To test the efficacy of TRH, six nursing women between the 5th and 35 postpartum days were studied. Each received one 5 mg capsule of TRH in the early morning after an overnight fast. Six nursing women matched for postpartum interval received a placebo of lactose sugar. Blood samples were drawn from an indwelling catheter in an antecubital vein at -5,0,30,60,120, and 180 min.
A set of specific radioimmunoassays were employed for the measurement of plasma hormones. PRL was measured by a modification of the radioimmunoassay of Hwang et al., Proc. Nat. Acad. Sci., 68:1902 (1971) using the iodination technique of Greenwood et al., Biochem J., 89:114 (1963). Plasma LH and FSH were measured by using a modification of the double antibody radioimmunoassay of Midgely, Endocrinology, 79:10 (1966). Thyrotropin (TSH) was determined by a double antibody radioimmunoassay of Odell, Rayford and Ross, J. Lab. Clin. Med., 70:973 (1967). Plasma thyroxine (T4) by column was measured by the method of Pileggi and Kessler, Clin. Chem., 14:339 (1968). A modification of the immunoassay of Roth et al., Science, 140:987 (1963), was used to measure plasma growth hormone (GH) utilizing the iodination technique for prolactin. Antibody bound radioactivity was separated by the dextran-charcoal method of Herbert et al., J. Clin. Endocrinol. Metab., 25:1375 (1965). […]

[2] = system: women practicing full nursing; format: in vivo, human
Protocol: (§1) Sixty women volunteered for this major study and each was instructed to practice full nursing for at least 90 postpartum days. Fifty percent of the women were dropped from the study before the end of the first postpartum month due to changes in nursing patterns. The remaining 30 women were randomly divided into TRH and control groups. TRH, 5 mg or a lactose placebo, was administered daily at 0800 and 2000 h for 30 days beginning on day 29 postpartum. Blood and milk samples were obtained on the first postpartum day and at weekly intervals between 1500 and 1600 h. Thus, blood samples were never obtained sooner than 7 h after the ingestion of TRH. Each women's nursing pattern was recorded by nurse-midwives. Charts of infant growth and development were plotted weekly.
(§2) With regard to sampling procedures, individual blood samples were collected in heparinized vacuum tubes. Neither nursing nor maternal food intake had occurred in the previous 3 h. The sampling procedure in Examples II and III consisted of placing the patient at rest for a minimum of 15 min after which blood was drawn from an antecubital vein. Blood samples were centrifuged and plasma was removed and stored at -20C. Samples originating outside the continental United States were delivered to the laboratory at quarterly intervals in dry ice by special messenger.
(§3) In Examples II and III, milk was obtained from each breast following blood sampling and immediately prior to nursing. The women were instructed to grasp first the right and then the left breast, kneading it gently toward the nipple. Thus, 10 ml or more of the fore milk was removed with ease through each nipple and combined in a sterile container. The sample was thoroughly mixed by vigorous shaking. A compressed tablet of mercuric chloride and potassium dichromate was then added as a preservative to each sample before storing.
(§4) A set of specific radioimmunoassays were employed for the measurement of plasma hormones. PRL was measured by a modification of the radioimmunoassay of Hwang et al., Proc. Nat. Acad. Sci., 68:1902 (1971) using the iodination technique of Greenwood et al., Biochem J., 89:114 (1963). Plasma LH and FSH were measured by using a modification of the double antibody radioimmunoassay of Midgely, Endocrinology, 79:10 (1966). Thyrotropin (TSH) was determined by a double antibody radioimmunoassay of Odell, Rayford and Ross, J. Lab. Clin. Med., 70:973 (1967). Plasma thyroxine (T4) by column was measured by the method of Pileggi and Kessler, Clin. Chem., 14:339 (1968). A modification of the immunoassay of Roth et al., Science, 140:987 (1963), was used to measure plasma growth hormone (GH) utilizing the iodination technique for prolactin. Antibody bound radioactivity was separated by the dextran-charcoal method of Herbert et al., J. Clin. Endocrinol. Metab., 25:1375 (1965). Each of the references mentioned in this paragraph is incorporated herein by reference.
For the analysis of milk composition, samples were thawed and held at room temperature for no more than 30 min. Aliquots were analyzed for percent fat, protein and lactose concentrations using the infrared milk analyzer (IRMA). Samples less than 30 ml in volume (about 10% of the total) were diluted up to 35 ml with distilled water. These were then homogenized with a Biosonic Model 3 Ultrasonicater (Bronwill Scientific Co., Rochester, N.Y.) at an exposed intensity of 70 vibrations per second for 30 sec. These samples were stored overnight at 4° C. and then analyzed for composition. […]

[3] = system: infants of TRH-treated mothers; set-up: species or system human; settings: in vivo, po
Protocol: as §1, with “Charts of infant growth and development were plotted weekly.” left out
A set of specific radioimmunoassays were employed for the measurement of plasma hormones. PRL was measured by a modification of the radioimmunoassay of Hwang et al., Proc. Nat. […] Plasma LH and FSH were measured by using a modification of the double antibody radioimmunoassay of Midgely, Endocrinology, 79:10 (1966). Thyrotropin (TSH) was determined by a double antibody radioimmunoassay of Odell, Rayford and Ross, J. Lab. […] Plasma thyroxine (T4) by column was measured by the method of Pileggi and Kessler, Clin. Chem., 14:339 (1968). […] Antibody bound radioactivity was separated by the dextran-charcoal method of Herbert et al., J. Clin. Endocrinol. […]

[4] = system: women with lactational insufficiency practicing partial nursing; assay: Example III: oral TRH 5 mg or 20 mg twice a day for 5 days in women with lactational insufficiency; format: in vivo, human
Protocol: A group of 13 women with lactational insufficiency practicing partial nursing between 13-71 postpartum days were next studied. Four received TRH 5 mg and nine received 20 mg twice a day at 0800 and 2000 h for 5 days. Blood samples were obtained prior to the first capsule and daily thereafter for 5 days before taking the morning dose of TRH. Daily milk samples were also collected.
as §2, §3, §4
For the analysis of milk composition, samples were thawed and held at room temperature for no more than 30 min. Aliquots were analyzed for percent fat, protein and lactose concentrations using the infrared milk analyzer (IRMA). Samples less than 30 ml in volume (about 10% of the total) were diluted up to 35 ml with distilled water. These were then homogenized with a Biosonic Model 3 Ultrasonicater (Bronwill Scientific Co., Rochester, N.Y.) at an exposed intensity of 70 vibrations per second for 30 sec. These samples were stored overnight at 4° C. and then analyzed for composition. Corrections were made for any dilution.

[5] = system: women with insufficient lactation; set-up: species or system human; settings: in vivo
Protocol: as §4
As an experimental exercise, two women with insufficient lactation gave consent for the administration of 40 mg of oral TRH twice a day or the same time schedule as noted above. On the 7th day of therapy the patients were reevaluated and found to have lost weight. Their pulse rate was elevated as was their blood pressure. […]

[6] = system: surrogate mothers; assay: Induction of lactation in surrogate (adoptive) mothers with conjugated estrogens plus oral TRH; format: in vivo, human
Description: An additional use of TRH is in surrogate mothers. Studies in accordance with the present invention have involved the administration of TRH to adoptive mothers. In most instances, such women have undergone voluntary sterilization following the birth of natural children but, for one reason or another, wish to have another child. By the present invention, lactation has been induced in such women for the benefit of their adopted child by attempting to simulate the effects of pregnancy on prolactin secretion and, at the same time, by requesting that the […] practice auto-stimulation of the nipple. The technique of stimulation is as follows: Women are treated with 5 to 10 mg of conjugated estrogens equine twice a day for 14 days. Caution with regard to the possibility of side effects is given to each woman based upon the known effects of such estrogens on the vascular system. Beginning on the 7th day of estrogen treatment, oral TRH 5-10 mg twice a day, at intervals of about 12 hours, is administered for the final 7 days of treatment with estrogen. At the end of the 14th estrogen-treatment day, TRH is continued while the frequency of nipple stimulation is increased from four times daily to every 4 hours. In the women studied thus far, milk production can be induced within 72 hours following the withdrawal of the estrogen. […]

[7] = system: puerperally lactating mothers; assay: Reestablishment of lactation in puerperally lactating mothers after emergency surgery; format: in vivo, human; settings: mothers separated from child by emergency surgery; with coincident sucking
Description: The administration of TRH may also be initiated in puerperally lactating mothers who have to undergo emergency surgery such as polycystectomy, apendectomy, or the repair of fractures. Such surgery usually takes the mother away from the child for periods of time up to 14 days and a mother who is desirous of breastfeeding may find great difficulty in reestablishing lactation when she returns home from the hospital. In such cases, the administration of TRH has been associated with the reestablishment of lactation within 48 hours. It is to be emphasized that such lactation cannot be firmly established without coincident sucking of the nipple by the child.

[8] = system: postpartum women; assay: Low-dose TRH in postpartum women: prolactin versus thyrotropin response; format: in vivo, human
[9] = 20 mg dosage capsules three times a day, oral; cited from earlier work
[10] = 5 mg TRH every 12 h for 5 days, four women
[11] = 20 mg twice daily, Day 1 (before initial ingestion)

Question: With NC(=O)[C@@H]1CCCN1C(=O)[C@H](Cc1cnc[nH]1)NC(=O)[C@@H]1CCC(=O)N1 [TRH, thyrotropin releasing hormone] as the compound, how does the “mean maximal PRL increment” value ([1]; at 60 min, six nursing mothers) read?
Answer: 46.3 ng/mL

Question: And the “peripheral PRL throughout the sampling period” value ([1]; sampling to 180 min)?
Answer: remained elevated

Question: And the “weekly 1500 h maternal PRL concentration” value ([2]; 5 mg TRH twice daily for 30 days, full nursing)?
Answer: not associated with any significant change

Question: What about the “milk composition (percent of fat and protein concentration)” value ([2]; TRH versus control group, full nursing) of the same compound?
Answer: did not differ significantly

Question: And the “bleeding patterns (postovulatory vaginal bleeding)” value ([2]; beyond the 14th postpartum week, TRH-treated versus placebo-treated mothers)?
Answer: no difference

Question: And the T4 values ([2]; in vivo)?
Answer: normal

Question: What about the gonadotropin levels ([2]; measured weekly, TRH versus controls) of the same compound?
Answer: identical in controls

Question: What about the “infant plasma growth hormone” value [3] of the same compound?
Answer: 32.2 ± 4.9 ng/mL

Question: And the infant plasma prolactin [3]?
Answer: 200.3 ± 19.2 ng/mL

Question: And the “increase in the PRL concentration” value [4, 10]?
Answer: 50%

Question: What about the “milk production and letdown” value [4, 10] of the same compound?
Answer: increased

Question: And the “% Milk fat, Mean ± SE” value [4, 11]?
Answer: 2.99±0.4%

Question: And the “% Milk protein, Mean ± SE” value [4, 11]?
Answer: 1.81±0.2%

Question: What about the “Plasma PRL, Mean ± SE” value ([4]; 20 mg twice daily, Day 1 (before initial ingestion), nine women) of the same compound?
Answer: 27.8 ± 5.3 ng/mL

Question: And the “% Milk fat, Mean ± SE” value ([4]; 20 mg twice daily, Day 2, NS)?
Answer: 3.88±0.6%

Question: And the “% Milk protein, Mean ± SE” value ([4]; 20 mg twice daily, Day 2, NS)?
Answer: 1.63±0.2%

Question: What about the “Plasma PRL, Mean ± SE” value ([4]; 20 mg twice daily, Day 2, P .0005 vs day 1) of the same compound?
Answer: 53.1 ± 8.7 ng/mL

Question: And the “% Milk fat, Mean ± SE” value ([4]; 20 mg twice daily, Day 3, NS)?
Answer: 3.21± 0.4%

Question: What about the “% Milk protein, Mean ± SE” value ([4]; 20 mg twice daily, Day 3, NS) of the same compound?
Answer: 1.61± 0.1%

Question: What about the “Plasma PRL, Mean ± SE” value ([4]; 20 mg twice daily, Day 3, P .005 vs day 1) of the same compound?
Answer: 73.3 ± 12.4 ng/mL

Question: What about the “% Milk fat, Mean ± SE” value ([4]; 20 mg twice daily, Day 4, NS) of the same compound?
Answer: 3.79±0.4%

Question: And the “% Milk protein, Mean ± SE” value ([4]; 20 mg twice daily, Day 4, NS)?
Answer: 1.62±0.1%

Question: And the “Plasma PRL, Mean ± SE” value ([4]; 20 mg twice daily, Day 4, NS vs day 1)?
Answer: 44.1 ± 7.0 ng/mL

Question: What about the “% Milk fat, Mean ± SE” value ([4]; 20 mg twice daily, Day 5, NS) of the same compound?
Answer: 3.02±0.2%

Question: What about the “% Milk protein, Mean ± SE” value ([4]; 20 mg twice daily, Day 5, NS) of the same compound?
Answer: 1.60±0.1%

Question: What about the “Plasma PRL, Mean ± SE” value ([4]; 20 mg twice daily, Day 5, NS vs day 1) of the same compound?
Answer: 54.8 ± 13.9 ng/mL

Question: What about the “mean percent fat composition of milk, greater than pretreatment” value ([4]; 20 mg twice daily, day two of treatment, difference not significant) of the same compound?
Answer: ~1%

Question: What about the “percent of lactose concentration in milk” value ([4]; milk samples obtained from all studies) of the same compound?
Answer: remained constant

Question: What about the “return to full nursing” value ([4]; partially nursing women after TRH ingestion) of the same compound?
Answer: all were able to return to full nursing

Question: What about the “breast engorgement and milk letdown” value ([4]; reported by each woman as a result of TRH ingestion) of the same compound?
Answer: subjective and objective increases

Question: And the reevaluation after discontinuation [5]?
Answer: no clinical or laboratory evidence of hyperthyroidism

Question: What about the “time to induction of milk production following the withdrawal of the estrogen” value ([6]; conjugated estrogens equine 5 to 10 mg twice a day 14 days, oral TRH 5-10 mg twice a day from 7th day, nipple stimulation) of the same compound?
Answer: ≤ 72 h

Question: And the “basal plasma prolactin concentration” value ([6]; conjugated estrogens equine then oral TRH 5-10 mg twice a day, surrogate mothers)?
Answer: increase

Question: What about the “time to reestablishment of lactation” value [7] of the same compound?
Answer: ≤ 48 h

Question: And the “dose for maximum prolactin response, times lower than dose for threshold thyrotropin secretion” value [8]?
Answer: 5 to 10 times

Question: And the “instances in which peripheral prolactin concentration is elevated” value ([8]; TRH in low doses)?
Answer: 95%

Question: What about the “effect on the yield or composition of milk” value [9] of the same compound?
Answer: no significant effect
